In brackets after ≈: the same amount, converted by molar mass. Read-outs that look alike come from different tables or passages of the source.
Legend:
[1] = tested on: Kan^R S. Typhimurium in G. mellonella larvae; experiment: Efficacy in Salmonella-infected G. mellonella larvae; assay type: in vivo, Galleria mellonella; conditions: for Survival of infected larvae: three days
Method: Wax moths were selected as mentioned above. For this study, Kan^R S. Typhimurium was used for challenge. First, the virulence of Kan^R S. Typhimurium was assessed in comparison to WT parent S. Typhimurium strain in G. mellonella. Briefly, larvae (n = 20) were infected in one pro-leg with approximately 8.5 × 10^3 S. Typhimurium suspended in 10 mM MgSO4 (8,5 µl of inoculum) and incubated for three days in the dark at 37 °C in a petri dish. Survival was monitored every 12 hrs for three days. Bacterial quantification was performed once the larvae had died (dark pigmentation or no reaction to a mechanical stimulus) or after 72 hrs of incubation. Larvae were washed once with 70% ethanol, twice with sterile distilled water for 30 sec each, and transferred individually into an Eppendorf® tubes containing 1 ml of 1X PBS and homogenized. The mixture was serially diluted, plated on XLT-4 agar plate supplemented with 50 µg/ml kanamycin, and incubated for 36 hrs at 37 °C. Larvae not treated and larvae treated with the buffer mix were included as controls. The virulence of Kan^R and WT S. Typhimurium strains was assessed by comparing the larval mortality and bacterial counts.
To test the effect of SMs on S. Typhimurium in larvae, SMs and Kan^R S. Typhimurium were injected into two different pro-legs and at different time points as previously described. First, the larvae were treated with SMs, then incubated for 2 hrs at 37 °C in a petri dish, and infected with approximately 8.5 × 10^3 of Kan^R S. Typhimurium per larva. Summary of treatments are described in Supplementary Table S3. Larvae treated with 50 mg/kg chloramphenicol were used as control (lowest concentration of antibiotic allowing 100% larva survival rate; see Supplementary Fig. S3F).
34 Supplemental Table 3. SM treatment groups: wax moth study
Groups Treatment S. Typhimurium*
Negative control 30% DMSO Yes
36 At the given concentration, SMs were soluble at 30% DMSO and higher. Asterisk:
37 larvae were infected with approximately 3.5 X 104 S. Typhimurium bacteria per […]

[2] = tested on: Salmonella enterica subsp. enterica serotype Typhimurium; experiment: Checkerboard assay, SM and antibiotic combinations; assay type: cell-based; conditions: for MBC: Salmonella enterica, TYPHIMURIUM, antibiotic alone, M9 medium, read-out: AB MBCalone
Method: The potentiation effect of several antibiotics, commonly used to control Salmonella, was studied in a checkerboard assay. […] The MBC of each antibiotic was determined in M9 medium prior the experiment using a dose-response assay, as described above. For potentiation studies, 100 μl of a S. […] The MBC of each antibiotic was determined as described in the dose-response assay. Bacteria challenged with SMs or antibiotics alone at the same concentrations were used to determine the antibiotic-SM combination effects. […] Further, the bacterial suspension was plated on an agar medium and incubated at 37 °C for 36 hrs. The antibiotic-SM combination effect was calculated based on the determination of the fractional bactericidal concentration (FBC) as previously described[66],[67].

[3] = tested on: S. Typhimurium LT2 wild-type (WT) strain; experiment: Dose-response assay (MIC and MBC determination) in M9 broth; assay type: cell-based, Salmonella enterica subsp. enterica serovar Typhimurium; conditions: 12 hrs at 37 °C, read-out: MBC (minimal bactericidal concentration)
Method: Typhimurium using high-throughput screening assay in a 96-well plate format. […] Plates were incubated in a Sunrise Tecan kinetic microplate reader for 12 hrs at 37 °C and the optical density (OD) was measured at 600 nm. The percentage of growth inhibition was calculated as: […]. Cultures from wells showing no turbidimetric increase were transferred onto a XLT4 agar plate. Plates were incubated at 37 °C for 36 hrs. […] S. Typhimurium was challenged with a determined concentration of SM as described in the primary screen.

Salmonella Javiana = experiment: Dose-response assay (MBC) on Salmonella serovars; assay type: cell-based, Salmonella enterica
[4] = tested on: nine Salmonella serotypes; experiment: Activity spectrum and dose-response across Salmonella serotypes; assay type: cell-based, Salmonella enterica
Method: The 128 SMs inhibiting S. Typhimurium growth (20% or higher) were tested for their antimicrobial effect on nine different Salmonella serovars frequently implicated in foodborne gastroenteritis outbreaks. […] Both screens were performed at 200 µM as described in the primary screening. Growth conditions for each strain are described in Supplementary Table S2.
S. Typhimurium was challenged with a determined concentration of SM as described in the primary screen.

Salmonella Newport = experiment: Dose-response assay (MBC) on Salmonella serovars; assay type: cell-based; conditions: Salmonella enterica; serovar Newport, M9 broth
Salmonella Heidelberg = experiment: Dose-response assay (MBC) on Salmonella serovars; assay type: cell-based; conditions: Salmonella enterica; serovar Heidelberg, M9 broth
Salmonella Saint-Paul = experiment: Dose-response assay (MBC) on Salmonella serovars; assay type: cell-based, Salmonella enterica; conditions: serovar Saint-Paul, M9 broth
S. Typhimurium = assay type: cell-based, Salmonella enterica subsp. enterica serovar Typhimurium
Salmonella Enteritidis = experiment: Dose-response assay (MBC) on Salmonella serovars; assay type: cell-based; conditions: Salmonella enterica; serovar Enteritidis, M9 broth
[5] = antibiotic combined with SM1 at the concentration in the next cell
[6] = antibiotic combined with SM3 at the concentration in the next cell
[7] = antibiotic combined with SM4 at the concentration in the next cell
[8] = antibiotic combined with SM5 at the concentration in the next cell

SMILES	MBC ([2]; 12 h) [µg/mL]	AB MBCcombined [2, 6] [µg/mL]	AB MBCcombined [2, 7] [µg/mL]	AB MBCcombined [2, 8] [µg/mL]	Combination effect (FBC class) ([2]; antibiotic with SM1)	Combination effect (FBC class) ([2]; antibiotic with SM3)	Combination effect (FBC class) ([2]; antibiotic with SM4)	Combination effect (FBC class) ([2]; antibiotic with SM5)	MBC [3] [µM]	other results
O=C(N[C@H](CO)[C@H](O)c1ccc([N+](=O)[O-])cc1)C(Cl)Cl [chloramphenicol]	–	–	–	–	–	–	–	–	–	Survival of infected larvae ([1]; 50 mg/kg): 100%; Survival of infected larvae ([1]; 50, 75, and 100 mg/kg, treated 2 hrs before infection): 100%; Lowest concentration allowing 100% larva survival rate ([1]; infected larvae): 50 mg/kg
CO/N=C(\C(=O)N[C@@H]1C(=O)N2C(C(=O)O)=C(COC(C)=O)CS[C@H]12)c1csc(N)n1 [Cefotaxime]	3.2	3.2	3.2	3.2	c (Indifferent (FBC > 1.0 and ≤2.0; reduction in MBCs inferior to 50% for both antibiotic and SM))	c (Indifferent (FBC > 1.0 and ≤2.0; reduction in MBCs inferior to 50% for both antibiotic and SM))	c (Indifferent (FBC > 1.0 and ≤2.0; reduction in MBCs inferior to 50% for both antibiotic and SM))	c (Indifferent (FBC > 1.0 and ≤2.0; reduction in MBCs inferior to 50% for both antibiotic and SM))	–	AB MBCcombined [2, 5]: 3.2 µg/mL
O=[N+]([O-])c1ccc(F)c(N=Cc2cc(Cl)cc(Cl)c2O)c1 [SM7]	–	–	–	–	–	–	–	–	50 (≈ 16.5 µg/mL)	–
CN(CCO)CC(O)Cn1c2ccc(Br)cc2c2cc(Br)ccc21 (stereo not drawn) [SM2]	–	–	–	–	–	–	–	–	100 (≈ 45.6 µg/mL)	MBC (Salmonella Javiana): 200 µM (≈ 91.2 µg/mL); Effect against the nine Salmonella serotypes ([4]; 200 µM, M9 broth): cidal; MBC ([4]; Salmonella, read-out: MBCs among the nine serotypes): 100 to 200 µM (≈ 45.6 to 91.2 µg/mL); MBC ([3]; Salmonella enterica): 100 µM (≈ 45.6 µg/mL); MBC (Salmonella Newport): 200 µM (≈ 91.2 µg/mL); MBC (Salmonella Heidelberg): 200 µM (≈ 91.2 µg/mL); MBC (Salmonella Saint-Paul): 200 µM (≈ 91.2 µg/mL); Concentration in which resistant bacteria were able to grow (S. Typhimurium; M9 broth, 4X MBC): 400 µM; Resistance development of S. Typhimurium (S. Typhimurium; lethal dose (2X MBC) on solid medium or repeated exposure to sub-lethal dose (0.75X MBC) in liquid medium): developed resistance; MBC (Salmonella Enteritidis): 200 µM (≈ 91.2 µg/mL)
CCn1cc(C(=O)O)c(=O)c2ccc(C)nc21 [Nalidixic acid]	16	16	16	16	c (Indifferent (FBC > 1.0 and ≤2.0; reduction in MBCs inferior to 50% for both antibiotic and SM))	c (Indifferent (FBC > 1.0 and ≤2.0; reduction in MBCs inferior to 50% for both antibiotic and SM))	c (Indifferent (FBC > 1.0 and ≤2.0; reduction in MBCs inferior to 50% for both antibiotic and SM))	c (Indifferent (FBC > 1.0 and ≤2.0; reduction in MBCs inferior to 50% for both antibiotic and SM))	–	MBC [2]: 16 µg/mL
CC[C@H]1OC(=O)[C@H](C)[C@@H](O[C@H]2C[C@@](C)(OC)[C@@H](O)[C@H](C)O2)[C@H](C)[C@@H](O[C@@H]2O[C@H](C)C[C@H](N(C)C)[C@H]2O)[C@](C)(O)C[C@@H](C)C(=O)[C@H](C)[C@@H](O)[C@]1(C)O [Erythromycin]	200	200	200	200	c (Indifferent (FBC > 1.0 and ≤2.0; reduction in MBCs inferior to 50% for both antibiotic and SM))	c (Indifferent (FBC > 1.0 and ≤2.0; reduction in MBCs inferior to 50% for both antibiotic and SM))	c (Indifferent (FBC > 1.0 and ≤2.0; reduction in MBCs inferior to 50% for both antibiotic and SM))	c (Indifferent (FBC > 1.0 and ≤2.0; reduction in MBCs inferior to 50% for both antibiotic and SM))	–	AB MBCcombined [2, 5]: 200 µg/mL
C[C@@H](O)[C@H]1C(=O)N2C(C(=O)O)=C(S[C@@H]3CN[C@H](C(=O)N(C)C)C3)[C@H](C)[C@H]12 [Meropenem]	0.2	–	0.2	0.2	b (Additive effect (FBC > 0.5 and ≤ 1.0; percentage reduction in MBCs between 50% and 75% for both antibiotic and SM))	c (Indifferent (FBC > 1.0 and ≤2.0; reduction in MBCs inferior to 50% for both antibiotic and SM))	c (Indifferent (FBC > 1.0 and ≤2.0; reduction in MBCs inferior to 50% for both antibiotic and SM))	c (Indifferent (FBC > 1.0 and ≤2.0; reduction in MBCs inferior to 50% for both antibiotic and SM))	–	MBC [2]: 0.2 µg/mL
COc1cccc(N=Cc2cc(Cl)cc(Cl)c2O)c1 [SM8]	–	–	–	–	–	–	–	–	100 (≈ 29.6 µg/mL)	–

Reference: paper PMC6127322, “Novel Imidazole and Methoxybenzylamine Growth Inhibitors Affecting Salmonella Cell Envelope Integrity and its Persistence in Chickens” (Scientific Reports, 2018)
